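GI50 is the concentration that inhibits growth by half. TGI is the concentration that stops growth completely.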
Legend:
Assay in all cases: inhibition of tumour cell growth, NCI panel, 384-well format
NCI/ADR-RES ovarian = test system: NCI/ADR-RES ovarian
SK-MEL-5 melanoma = test system: SK-MEL-5 melanoma
M14 melanoma = test system: M14 melanoma
SNB-19 CNS = test system: SNB-19 CNS
MALME-3M melanoma = test system: MALME-3M melanoma
NCI-H522 lung = test system: NCI-H522 lung
BT-549 breast = test system: BT-549 breast
HT29 colon = test system: HT29 colon
T-47D breast = test system: T-47D breast
DU-145 prostate = test system: DU-145 prostate
OVCAR-3 ovarian = test system: OVCAR-3 ovarian
ACHN renal = test system: ACHN renal
HCC-2998 colon = test system: HCC-2998 colon
HCT-15 colon = test system: HCT-15 colon
IGROV1 ovarian = test system: IGROV1 ovarian
HL-60(TB) leukemia = test system: HL-60(TB) leukemia
SF-295 CNS = test system: SF-295 CNS
CAKI-1 renal = test system: CAKI-1 renal
MDA-MB-468 breast = test system: MDA-MB-468 breast
OVCAR-5 ovarian = test system: OVCAR-5 ovarian
OVCAR-4 ovarian = test system: OVCAR-4 ovarian
NCI-H322M lung = test system: NCI-H322M lung
SF-268 CNS = test system: SF-268 CNS
HS 578T breast = test system: HS 578T breast
SR leukemia = test system: SR leukemia
SNB-75 CNS = test system: SNB-75 CNS
SK-MEL-28 melanoma = test system: SK-MEL-28 melanoma
RPMI-8226 leukemia = test system: RPMI-8226 leukemia
EKVX NSCLC = test system: EKVX NSCLC
MOLT-4 leukemia = test system: MOLT-4 leukemia
NCI-H226 lung = test system: NCI-H226 lung
SF-539 CNS = test system: SF-539 CNS
U251 glioblastoma = test system: U251 glioblastoma
MCF7 breast = test system: MCF7 breast
HOP-62 NSCLC = test system: HOP-62 NSCLC
LOX IMVI melanoma = test system: LOX IMVI melanoma
SK-OV-3 ovarian = test system: SK-OV-3 ovarian
TK-10 renal = test system: TK-10 renal
SN12C renal = test system: SN12C renal
A498 renal = test system: A498 renal
KM12 colon = test system: KM12 colon
HCT-116 colon = test system: HCT-116 colon
NCI-H460 NSCLC = test system: NCI-H460 NSCLC
OVCAR-8 ovarian = test system: OVCAR-8 ovarian
MDA-MB-435 melanoma = test system: MDA-MB-435 melanoma
MDA-MB-231 breast = test system: MDA-MB-231 breast
A549 NSCLC = test system: A549 NSCLC
NCI-H23 lung = test system: NCI-H23 lung
RXF 393 renal = test system: RXF 393 renal
COLO 205 colon = test system: COLO 205 colon
PC-3 prostate = test system: PC-3 prostate
HOP-92 NSCLC = test system: HOP-92 NSCLC
UO-31 renal = test system: UO-31 renal
UACC-257 melanoma = test system: UACC-257 melanoma
786-0 renal = test system: 786-0 renal
K-562 leukemia = test system: K-562 leukemia

In the case of `O=C(/C=C/c1cccnc1)NCCCCC1CCN(C(=O)c2ccccc2)CC1`, the GI50 (NCI/ADR-RES ovarian) is reported as < 10 nM, the TGI (NCI/ADR-RES ovarian) is reported as < 10 nM and the GI50 (SK-MEL-5 melanoma) is reported as < 10 nM. For the same molecule, the TGI (SK-MEL-5 melanoma) was < 10 nM, the GI50 (M14 melanoma) was < 10 nM and the TGI (M14 melanoma) was < 10 nM. For the same molecule, the GI50 (SNB-19 CNS) was < 10 nM, the TGI (SNB-19 CNS) was < 10 nM and the GI50 (MALME-3M melanoma) was < 10 nM. For the same molecule, the TGI (MALME-3M melanoma) was 13.9 nM, the GI50 (NCI-H522 lung) was < 10 nM and the TGI (NCI-H522 lung) was < 10 nM. For the same molecule, the GI50 (BT-549 breast) was < 10 nM, the TGI (BT-549 breast) was < 10 nM and the GI50 (HT29 colon) was < 10 nM. For the same molecule, the TGI (HT29 colon) was < 10 nM, the GI50 (T-47D breast) was < 10 nM and the TGI (T-47D breast) was < 10 nM. For the same molecule, the GI50 (DU-145 prostate) was < 10 nM, the TGI (DU-145 prostate) was < 10 nM and the GI50 (OVCAR-3 ovarian) was < 10 nM. The TGI (OVCAR-3 ovarian) was < 10 nM, the GI50 (ACHN renal) was < 10 nM and the TGI (ACHN renal) was < 10 nM. For the same molecule, the GI50 (HCC-2998 colon) was < 10 nM, the TGI (HCC-2998 colon) was < 10 nM and the GI50 (HCT-15 colon) was < 10 nM. The TGI (HCT-15 colon) was < 10 nM, the GI50 (IGROV1 ovarian) was < 10 nM and the TGI (IGROV1 ovarian) was < 10 nM. The GI50 (HL-60(TB) leukemia) was < 10 nM, the TGI (HL-60(TB) leukemia) was < 10 nM and the GI50 (SF-295 CNS) was < 10 nM. The TGI (SF-295 CNS) was < 10 nM, the GI50 (CAKI-1 renal) was < 10 nM and the TGI (CAKI-1 renal) was < 10 nM. For the same molecule, the GI50 (MDA-MB-468 breast) was < 10 nM, the TGI (MDA-MB-468 breast) was < 10 nM and the GI50 (OVCAR-5 ovarian) was < 10 nM. For the same molecule, the TGI (OVCAR-5 ovarian) was < 10 nM, the GI50 (OVCAR-4 ovarian) was < 10 nM and the TGI (OVCAR-4 ovarian) was < 10 nM. The GI50 (NCI-H322M lung) was < 10 nM, the TGI (NCI-H322M lung) was < 10 nM and the GI50 (SF-268 CNS) was < 10 nM. The TGI (SF-268 CNS) was < 10 nM, the GI50 (HS 578T breast) was < 10 nM and the TGI (HS 578T breast) was < 10 nM. For the same molecule, the GI50 (SR leukemia) was < 10 nM, the TGI (SR leukemia) was < 10 nM and the GI50 (SNB-75 CNS) was < 10 nM. The TGI (SNB-75 CNS) was < 10 nM, the GI50 (SK-MEL-28 melanoma) was < 10 nM and the TGI (SK-MEL-28 melanoma) was < 10 nM. For the same molecule, the GI50 (RPMI-8226 leukemia) was < 10 nM, the TGI (RPMI-8226 leukemia) was < 10 nM and the GI50 (EKVX NSCLC) was < 10 nM. For the same molecule, the TGI (EKVX NSCLC) was < 10 nM, the GI50 (MOLT-4 leukemia) was < 10 nM and the TGI (MOLT-4 leukemia) was < 10 nM. For the same molecule, the GI50 (NCI-H226 lung) was 60.2 nM, the TGI (NCI-H226 lung) was > 100000 nM and the GI50 (SF-539 CNS) was < 10 nM. The TGI (SF-539 CNS) was < 10 nM, the GI50 (U251 glioblastoma) was < 10 nM and the TGI (U251 glioblastoma) was < 10 nM. The GI50 (MCF7 breast) was < 10 nM, the TGI (MCF7 breast) was < 10 nM and the GI50 (HOP-62 NSCLC) was < 10 nM. The TGI (HOP-62 NSCLC) was < 10 nM, the GI50 (LOX IMVI melanoma) was < 10 nM and the TGI (LOX IMVI melanoma) was < 10 nM. For the same molecule, the GI50 (SK-OV-3 ovarian) was < 10 nM, the TGI (SK-OV-3 ovarian) was < 10 nM and the GI50 (TK-10 renal) was < 10 nM. For the same molecule, the TGI (TK-10 renal) was < 10 nM, the GI50 (SN12C renal) was < 10 nM and the TGI (SN12C renal) was < 10 nM. For the same molecule, the GI50 (A498 renal) was 16.9 nM, the TGI (A498 renal) was 67.9 nM and the GI50 (KM12 colon) was < 10 nM. For the same molecule, the TGI (KM12 colon) was < 10 nM, the GI50 (HCT-116 colon) was < 10 nM and the TGI (HCT-116 colon) was < 10 nM. For the same molecule, the GI50 (NCI-H460 NSCLC) was < 10 nM, the TGI (NCI-H460 NSCLC) was 11.7 nM and the GI50 (OVCAR-8 ovarian) was < 10 nM. For the same molecule, the TGI (OVCAR-8 ovarian) was < 10 nM, the GI50 (MDA-MB-435 melanoma) was < 10 nM and the TGI (MDA-MB-435 melanoma) was < 10 nM. The GI50 (MDA-MB-231 breast) was < 10 nM, the TGI (MDA-MB-231 breast) was < 10 nM and the GI50 (A549 NSCLC) was < 10 nM. The TGI (A549 NSCLC) was 10.8 nM, the GI50 (NCI-H23 lung) was < 10 nM and the TGI (NCI-H23 lung) was < 10 nM. For the same molecule, the GI50 (RXF 393 renal) was < 10 nM, the TGI (RXF 393 renal) was < 10 nM and the GI50 (COLO 205 colon) was < 10 nM. For the same molecule, the TGI (COLO 205 colon) was < 10 nM, the GI50 (PC-3 prostate) was < 10 nM and the TGI (PC-3 prostate) was < 10 nM. For the same molecule, the GI50 (HOP-92 NSCLC) was < 10 nM and the TGI (HOP-92 NSCLC) was 24 nM.
`Cc1c(C#N)cccc1-c1cc(-c2cn(Cc3cccc(C(C)(C)O)n3)nn2)nc(N)n1` was tested, and the GI50 (NCI/ADR-RES ovarian) was 17500 nM, the TGI (NCI/ADR-RES ovarian) was 44500 nM and the GI50 (M14 melanoma) was 57800 nM. The TGI (M14 melanoma) was > 100000 nM, the GI50 (MALME-3M melanoma) was 25200 nM and the TGI (MALME-3M melanoma) was 96400 nM. The GI50 (UO-31 renal) was 19000 nM, the TGI (UO-31 renal) was 62500 nM and the GI50 (NCI-H522 lung) was 18300 nM. For the same molecule, the TGI (NCI-H522 lung) was 62400 nM, the GI50 (HT29 colon) was 41100 nM and the TGI (HT29 colon) was > 100000 nM. The GI50 (T-47D breast) was 15200 nM, the TGI (T-47D breast) was 50900 nM and the GI50 (UACC-257 melanoma) was 25700 nM. It also gave a TGI (UACC-257 melanoma) of 79000 nM, a GI50 (SF-295 CNS) of 25600 nM and a TGI (SF-295 CNS) of 95800 nM. It also gave a GI50 (MDA-MB-468 breast) of 368 nM, a TGI (MDA-MB-468 breast) of 28700 nM and a GI50 (SNB-75 CNS) of 53200 nM. For the same molecule, the TGI (SNB-75 CNS) was > 100000 nM, the GI50 (RPMI-8226 leukemia) was 14900 nM and the TGI (RPMI-8226 leukemia) was 31500 nM. For the same molecule, the GI50 (EKVX NSCLC) was 32100 nM, the TGI (EKVX NSCLC) was > 100000 nM and the GI50 ([…]-0 renal) was 38200 nM. For the same molecule, the TGI (786-0 renal) was > 100000 nM, the GI50 (SK-OV-3 ovarian) was 33800 nM and the TGI (SK-OV-3 ovarian) was > 100000 nM. The GI50 (TK-10 renal) was 24000 nM, the TGI (TK-10 renal) was 96300 nM and the GI50 (KM12 colon) was 334 nM. The TGI (KM12 colon) was > 100000 nM, the GI50 (K-562 leukemia) was 25300 nM and the TGI (K-562 leukemia) was > 100000 nM. For the same molecule, the GI50 (MDA-MB-435 melanoma) was 36000 nM, the TGI (MDA-MB-435 melanoma) was > 100000 nM and the GI50 (MDA-MB-231 breast) was 30500 nM. For the same molecule, the TGI (MDA-MB-231 breast) was > 100000 nM, the GI50 (PC-3 prostate) was 29900 nM and the TGI (PC-3 prostate) was > 100000 nM.
